Several values for one entry are separate records, joined by “and”; a condition that tells them apart may be missing. Equal values may be shown once. Inconclusive results and toxic doses are left out. Rule as the data show it: active = T/C of 150% or more; inactive = T/C below 125%.
System: L1210 leukemia ip in BDF1 mice, survival T/C
Experiment: NCI In Vivo Anticancer Drug Screen. Data for tumor model L1210 Leukemia (intraperitoneal) in B6D2F1 (BDF1) mice
Conditions: endpoint: mean survival time, higher = longer survival
Summary of the method: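 Each compound was tested against a transplantable tumor grown in mice. The endpoint was survival, with treated animals benchmarked against vehicle controls as a simple ratio.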

[1] = dose: 100.0 mg/kg/injection, schedule: Q01DX009 (ip), vehicle: Klucel (hydroxypropylcellulose) (HPC)
[2] = dose: 100.0 mg/kg/injection, schedule: Q04DX003 (ip), vehicle: Klucel (hydroxypropylcellulose) (HPC)
[3] = dose: 200.0 mg/kg/injection, schedule: Q01DX009 (ip), vehicle: Klucel (hydroxypropylcellulose) (HPC)
[4] = dose: 200.0 mg/kg/injection, schedule: Q04DX003 (ip), vehicle: Klucel (hydroxypropylcellulose) (HPC)
[5] = dose: 400.0 mg/kg/injection, schedule: Q01DX009 (ip), vehicle: Klucel (hydroxypropylcellulose) (HPC)
[6] = dose: 400.0 mg/kg/injection, schedule: Q04DX003 (ip), vehicle: Klucel (hydroxypropylcellulose) (HPC)
[7] = dose: 100.0 mg/kg/injection, schedule: Q01DX001 (ip), vehicle: saline
[8] = dose: 200.0 mg/kg/injection, schedule: Q01DX001 (ip), vehicle: saline
[9] = dose: 100.0 mg/kg/injection, schedule: Q01DX001 (ip), vehicle: Klucel (hydroxypropylcellulose) (HPC)
[10] = dose: 200.0 mg/kg/injection, schedule: Q01DX001 (ip), vehicle: Klucel (hydroxypropylcellulose) (HPC)
[11] = dose: 400.0 mg/kg/injection, schedule: Q01DX001 (ip), vehicle: Klucel (hydroxypropylcellulose) (HPC)
[12] = dose: 100.0 mg/kg/injection, schedule: Q04DX002 (ip), vehicle: Klucel (hydroxypropylcellulose) (HPC)
[13] = dose: 200.0 mg/kg/injection, schedule: Q04DX002 (ip), vehicle: Klucel (hydroxypropylcellulose) (HPC)
[14] = dose: 400.0 mg/kg/injection, schedule: Q04DX002 (ip), vehicle: Klucel (hydroxypropylcellulose) (HPC)
[15] = dose: 12.5 mg/kg/injection, schedule: Q01DX009 (ip), vehicle: Klucel (hydroxypropylcellulose) (HPC)
[16] = dose: 25.0 mg/kg/injection, schedule: Q01DX009 (ip), vehicle: Klucel (hydroxypropylcellulose) (HPC)
[17] = dose: 100.0 mg/kg/injection, schedule: Q04DX003 (ip), vehicle: saline
[18] = dose: 200.0 mg/kg/injection, schedule: Q04DX003 (ip), vehicle: saline
[19] = dose: 75.0 mg/kg/injection, schedule: Q01DX001 (ip), vehicle: saline
[20] = dose: 150.0 mg/kg/injection, schedule: Q01DX001 (ip), vehicle: saline

Measured: T/C

Cc1ccc([N+](=O)[O-])c(OC(=O)Nc2ccccc2Cl)c1
inactive: [1] 105 % of control | [2] 100 % of control | [3] 100 % of control | [4] 97 % of control | [5] 107 % of control | [6] 100 % of control

C=COC(=O)N(C)C
inactive: dose: 50.0 mg/kg/injection, schedule: Q01DX009 (ip), vehicle: saline 89 % of control | dose: 50.0 mg/kg/injection, schedule: Q04DX003 (ip), vehicle: acetone 98 % of control | [7] 96 % of control | dose: 100.0 mg/kg/injection, schedule: Q01DX009 (ip), vehicle: saline 94 % of control | dose: 100.0 mg/kg/injection, schedule: Q04DX003 (ip), vehicle: acetone 96 % of control | [8] 107 % of control | dose: 200.0 mg/kg/injection, schedule: Q01DX009 (ip), vehicle: saline 95 % of control | dose: 200.0 mg/kg/injection, schedule: Q04DX003 (ip), vehicle: acetone 95 % of control

c1ccc(Nc2nnc(Nc3ccccc3)s2)cc1
inactive: [9] 92 % of control | [10] 103 % of control | [11] 106 % of control

CN(Cc1cccc(Cl)c1)C(=O)Nc1ccccc1
inactive: [12] 110 % of control | [13] 110 % of control | [14] 107 % of control

C[n+]1ccc(/C=C/C(=O)Nc2ccccc2)cc1
inactive: [2] 104 % of control | [4] 108 % of control | [6] 98 % of control

C[N+](C)(C)N1C(=O)C2C3c4ccccc4C(C2C1=O)[n+]1ccccc13 (configuration not stated)
inactive: dose: 9.38 mg/kg/injection, schedule: Q01DX001 (ip), vehicle: other 86 % of control | dose: 18.75 mg/kg/injection, schedule: Q01DX001 (ip), vehicle: other 105 % of control

COc1ccc(Cl)cc1-c1c(C(=O)O)cccc1[N+](=O)[O-]
inactive: dose: 100.0 mg/kg/injection, schedule: Q01DX001 (ip), vehicle: gum acacia 108 % of control | dose: 100.0 mg/kg/injection, schedule: Q04DX003 (ip), vehicle: gum acacia 102 % of control | dose: 200.0 mg/kg/injection, schedule: Q01DX001 (ip), vehicle: gum acacia 102 % of control | dose: 200.0 mg/kg/injection, schedule: Q04DX003 (ip), vehicle: gum acacia 102 % of control | dose: 400.0 mg/kg/injection, schedule: Q01DX001 (ip), vehicle: gum acacia 102 % of control | dose: 400.0 mg/kg/injection, schedule: Q04DX003 (ip), vehicle: gum acacia 90 % of control

CCCCNC(=O)C(C)S(=O)(=O)c1ccc(N)cc1 (configuration not stated)
inactive: dose: 100.0 mg/kg/injection, schedule: Q04DX003 (ip), vehicle: saline with Tween-80 98 % of control | dose: 200.0 mg/kg/injection, schedule: Q04DX003 (ip), vehicle: saline with Tween-80 96 % of control | dose: 400.0 mg/kg/injection, schedule: Q04DX003 (ip), vehicle: saline with Tween-80 102 % of control

O=C(Nc1ccc(F)cc1)Oc1ccccn1
inactive: [9] 101 % of control | [1] 95 % of control | [12] 94 % of control and 100 % of control | [2] 101 % of control | [10] 104 % of control | [3] 101 % of control and 87 % of control | [13] 94 % of control and 97 % of control | [4] 103 % of control | [11] 93 % of control | [5] 95 % of control and 96 % of control | [14] 94 % of control and 97 % of control | [6] 105 % of control

NC(=S)N/N=C1\COC(C(F)(F)F)(C(F)(F)F)C1
inactive: [15] 100 % of control | [16] 97 % of control | dose: 50.0 mg/kg/injection, schedule: Q01DX009 (ip), vehicle: Klucel (hydroxypropylcellulose) (HPC) 96 % of control | [1] 97 % of control and 100 % of control | [2] 103 % of control | [4] 105 % of control

CCCCCCCCCCC/C=N\[N+](C)(C)C
inactive: [15] 108 % of control | [16] 95 % of control

CCOC(=O)CNC(=O)C1CSC(C)(C)N1C=O (configuration not stated)
inactive: [17] 101 % of control | [18] 94 % of control | dose: 400.0 mg/kg/injection, schedule: Q04DX003 (ip), vehicle: saline 101 % of control

COP(N)(=S)OC
inactive: [19] 101 % of control | [20] 98 % of control | dose: 300.0 mg/kg/injection, schedule: Q01DX001 (ip), vehicle: saline 104 % of control

O=c1ccn(C2OC(CF)C(O)C2O)c(=O)[nH]1 (configuration not stated)
inactive: dose: 100.0 mg/kg/injection, schedule: Q01DX005 (ip), vehicle: saline 104 % of control | [2] 106 % of control | dose: 200.0 mg/kg/injection, schedule: Q01DX005 (ip), vehicle: saline 104 % of control | [4] 110 % of control | [6] 101 % of control

C=CCNC(=S)Nc1cc(Cl)ccc1OC
inactive: [1] 90 % of control | [2] 94 % of control | [4] 92 % of control | [5] 86 % of control | [6] 94 % of control

S=C(SSC(=S)N1CCOCC1)N1CCOCC1
inactive: [9] 88 % of control | [17] 93 % of control | [10] 101 % of control | [18] 101 % of control

CC(C)=CCC/C(C)=C/CC/C(C)=C/CC(=O)OCC=C(C)C
inactive: dose: 100.0 mg/kg/injection, schedule: Q04DX002 (ip), vehicle: saline with Tween-80 89 % of control | dose: 200.0 mg/kg/injection, schedule: Q04DX002 (ip), vehicle: saline with Tween-80 99 % of control | dose: 400.0 mg/kg/injection, schedule: Q04DX002 (ip), vehicle: saline with Tween-80 99 % of control

O=S(=O)(NC1CCC(CC2CCCCC2)CC1)c1ccccc1 (configuration not stated)
inactive: [1] 101 % of control | [2] 96 % of control | [3] 104 % of control | [4] 97 % of control | [5] 106 % of control | [6] 94 % of control

C=C1C(=O)OC2C1CCC1(C)CCCC(=C)C21O (configuration not stated)
inactive: dose: 25.0 mg/kg/injection, schedule: Q04DX002 (ip), vehicle: saline 105 % of control | dose: 50.0 mg/kg/injection, schedule: Q04DX002 (ip), vehicle: saline 102 % of control | dose: 100.0 mg/kg/injection, schedule: Q04DX002 (ip), vehicle: saline 93 % of control and 97 % of control | dose: 200.0 mg/kg/injection, schedule: Q04DX002 (ip), vehicle: saline 90 % of control

Cc1cc(CN(C)C)cc(C(C)C)c1O
inactive: dose: 12.5 mg/kg/injection, schedule: Q01DX009 (ip), vehicle: saline with Tween-80 96 % of control | dose: 25.0 mg/kg/injection, schedule: Q01DX009 (ip), vehicle: saline with Tween-80 97 % of control

CCCCCCC(C)CCCCCCCCNCCOC(=O)c1ccc(N)cc1 (configuration not stated)
inactive: [19] 102 % of control | [20] 104 % of control

c1ccc(OB(Oc2ccccc2)Oc2ccccc2)cc1
inactive: [7] 95 % of control | [8] 95 % of control | dose: 400.0 mg/kg/injection, schedule: Q01DX001 (ip), vehicle: saline 106 % of control

Cc1cccc(C)c1CNC(=O)NCCCl
inactive: [2] 98 % of control | [4] 95 % of control | [6] 104 % of control

From PubChem BioAssay AID248 (DTP/NCI, 2004)
